Reference: patent publication US20240091242A1, “LIPIDS THAT REDUCE LUNG DAMAGE, IMPROVE PULMONARY FUNCTION AND DECREASE PRO-INFLAMMATORY CYTOKINES” (Signpath Pharma, Inc., priority 2021, published 2024)

Test system: murine LPS ARDS model
Experiment: Histopathological evaluation (lung injury score), murine LPS ARDS model
Assay type: in vivo, mouse
Experimental: In the ARDS group, mice received Escherichia coli O111:B4 lipopolysaccharide (50 μg in 0.05 mL saline, i.t.), while, in the control group, the animals received an instillation of saline (0.05 mL, i.t.). For intratracheal instillation, mice were slightly anesthetized with isoflurane.
The lipid SPPCT-800 was dissolved in water (low dose—2 mg/ml; high dose—20 mg/ml). For the 24-hour study, two treatment approaches were used. Mice received a single dose of SPPCT-800 (200 mg/kg, per gavage) as prevention (30 minutes before the LPS instillation), or as a single dose of either 20 mg/kg or 200 mg/kg as therapy (3-hour after the LPS instillation). For the 72-hour study, mice received a total of 8 treatments of SPPCT-800 (200 mg/kg) starting at 3-hour after the LPS instillation. Disease progression in mice was assessed by the evaluation of pulmonary functions, blood oxygen saturation, and body weight change. On the terminal day of each study (24 hours or 72 hours), measurement of cytokine levels in the plasma and BALF, and histopathology evaluations were done.
Histopathological Evaluation. […] A blinded histologist evaluated the general morphology of alveolar septa, lung structure, and inflammation according to the general scoring described and adopted by Matute-Bello, et al.^25, 26
Statistical Analysis. Results are expressed as means±SEM. […]

`CCCCCCCCCCCCCC(=O)OCC(COP(=O)([O-])OCC(COC(=O)CCC)OC(=O)CCC)OC(=O)CCCCCCCCCCCCC.CCCCCCCCCCCCCC(=O)OCC(COP(=O)([O-])OCC(COC(=O)CCC)OC(=O)CCC)OC(=O)CCCCCCCCCCCCC.[Mg+2]` (centres unmarked) [SPPCT-800] showed a lung injury score (at 24 hours, given 30 minutes prior to LPS as a preventative, P<0.01) of 0.3 and a lung injury score (at 72 hours, multi-dose treatment group) of 2.2.
